Results taken from patent US6376497B1, “Antifungal azole derivatives having a fluorinated vinyl group and process for preparing same” (Korea Research Institute of Chemical Technology, priority 1999, dated 2002).

Assays:
Assay in all cases: In vitro antifungal activity, microbroth dilution MIC
Format in all cases: cell-based
[1] = system: Aspergillus furnigatus B. 19119; details: A furnigatus B. 19119, RPMI-1640, 35° C., 4 to 48 hours
Method: (§1) In vitro antifungal activities of the inventive antifungal compounds were evaluated using the test strains shown in Table VIII by the following microbroth dilution method which is a modified version of the procedure recommended by National Committee for Clinical Laboratory Standards(see National Committee for Clinical Laboratory Standards, 1992, Reference methods for broth dilution antifungal susceptibility testing of yeasts, Proposed standard M27-P, National Committee for clinical laboratory standards, Villanova, Pa; and National Committee for Clinical Laboratory Standards, 1995, Reference methods for broth dilution antifungal susceptibility testing of yeasts. Tentative standard M27-T, National Committee for clinical laboratory standards, Villanova, Pa).
(§2) Sabourad Dextrose Agar(Difco) was used as a culture medium, and RPMI-1640 broth(Sigma. Co. w/L-glutamine, wo/NaHCO3)(0.165 M MOPS, pH 7.0), as a dilution medium.
(§3) Each of the test strains were subcultured in Sabourad Dextrose Agar medium twice and a stain sample was taken from prominent colonies and suspended in sterile physiological saline solution in a cap tube. The turbidity of the suspension was adjusted to that of the Mcfarland 0.5 standard sample(approximately 10^6 CFU/ml). Then the suspension was diluted 500-fold with sterile RPMI-1640 liquid medium to 2×10^3 CFU/ml.
(§4) Each of the test compounds(the compounds obtained in Examples 1 to 150 and comparative compounds, i.e., fluconazole(FCZ) and itraconazole (ICZ)), was dissolved in DMSO to give a stock solution having a concentration of 4000 μg/ml and the stock solution was successively diluted to obtain test solutions having test compound concentrations of 200, 100, 50, 25, 12.5, 6.25, 3.13, 1.56, 0.78, 0.39, 0.20 and 0.10 μg/ml, respectively.
(§5) 0.1 ml portion of the test solutions were added to the wells of a sterile 96 well plate. Then, 0.1 ml portion of each of the test strain solutions were added successively to the wells and the plate was incubated at 35° C. for 4 to 48 hours.
(§6) Minimal inhibitory concentration(MIC) of each compound was defined as the concentration of the test compound where no growth of the strain could be observed.

[2] = system: Aspergillus niger A. 16404; details: A. niger A. 16404, RPMI-1640, 35° C., 4 to 48 hours
Method: as §1, §2, §3, §4, §5, §6

[3] = system: Candida albicans A. 10231; details: C. albicans A. 10231, RPMI-1640, 35° C., 4 to 48 hours
Method: as §1, §2, §3, §4, §5, §6

Candida albicans C1-2 = details: C. albicans C1-2, RPMI-1640, 35° C., 4 to 48 hours
Method: as §1, §2, §3, §4, §5, §6

[4] = system: Candida albicans IFO. 1385; details: C. albicans IFO. 1385, RPMI-1640, 35° C., 4 to 48 hours
Method: as §1, §2, §3, §4, §5, §6

Candida krusei K. 11655 = details: C. krusei K. 11655, RPMI-1640, 35° C., 4 to 48 hours
Method: as §1, §2, §3, §4, §5, §6

[5] = system: Candida parapsitosis A. 7330; details: C. parapsitosis A. 7330, RPMI-1640, 35° C., 4 to 48 hours
Method: as §1, §2, §3, §4, §5, §6

[6] = system: Candida pseudotropicalis K. 11658; details: C. pseudotropicalis K. 11658, RPMI-1640, 35° C., 4 to 48 hours
Method: as §1, §2, §3, §4, §5, §6

[7] = system: Candida tropicalis A. 13803; details: C. tropicalis A. 13803, RPMI-1640, 35° C., 4 to 48 hours
Method: as §1, §2, §3, §4, §5, §6

[8] = system: Cryptococcus neoformans A. 34144; details: Cry. neoformans A. 34144, RPMI-1640, 35° C., 4 to 48 hours
Method: as §1, §2, §3, §4, §5, §6

[9] = system: Cryptococcus neoformans B. 42419; details: Cry. neoformans B. 42419, RPMI-1640, 35° C., 4 to 48 hours
Method: as §1, §2, §3, §4, §5, §6

[10] = system: Cryptococcus neoformans IFM. 40092; details: Cry. neoformans IFM. 40092, RPMI-1640, 35° C., 4 to 48 hours
Method: as §1, §2, §3, §4, §5, §6

[11] = system: Torulopsis glabrata B. 16205; details: T. glabrata B. 16205, RPMI-1640, 35° C., 4 to 48 hours
Method: as §1, §2, §3, §4, §5, §6

[12] = system: Trichophyton mentagrophytes A. 9129; details: T. mentagrophytes A. 9129, RPMI-1640, 35° C., 4 to 48 hours
Method: as §1, §2, §3, §4, §5, §6

[13] = system: Trichophyton mentagrophytes B. 32663; details: T. mentagrophytes B. 32663, RPMI-1640, 35° C., 4 to 48 hours
Method: as §1, §2, §3, §4, §5, §6

Row | SMILES | Minimal inhibitory concentration (MIC) [1] | Minimal inhibitory concentration (MIC) [2] | Minimal inhibitory concentration (MIC) [3] | Minimal inhibitory concentration (MIC) (Candida albicans C1-2) | Minimal inhibitory concentration (MIC) [4] | Minimal inhibitory concentration (MIC) (Candida krusei K. 11655) | Minimal inhibitory concentration (MIC) [5] | Minimal inhibitory concentration (MIC) [6] | Minimal inhibitory concentration (MIC) [7] | Minimal inhibitory concentration (MIC) [8] | Minimal inhibitory concentration (MIC) [9] | Minimal inhibitory concentration (MIC) [10] | Minimal inhibitory concentration (MIC) [11] | Minimal inhibitory concentration (MIC) [12] | Minimal inhibitory concentration (MIC) [13]
1 | FC(OCC1COC(Cn2ccnc2)(c2ccc(F)cc2F)O1)=C(c1ccc2c(c1)OCO2)C(F)(F)F (mixture of isomers) [Ex. 62] | 25.0 µg/mL | >100 µg/mL | 12.5 µg/mL | 12.5 µg/mL | 0.78 µg/mL | 100 µg/mL | >100 µg/mL | 50.0 µg/mL | 100 µg/mL | 0.78 µg/mL | 0.78 µg/mL | 0.20 µg/mL | 3.13 µg/mL | 12.5 µg/mL | 3.13 µg/mL
2 | FC(OCC1COC(Cn2ccnc2)(c2ccc(F)cc2F)O1)=C(c1ccc(Oc2ccccc2)cc1)C(F)(F)F (mixture of isomers) [Ex. 63] | >100 µg/mL | >100 µg/mL | 25.0 µg/mL | 50.0 µg/mL | 3.13 µg/mL | >100 µg/mL | >100 µg/mL | >100 µg/mL | >100 µg/mL | 1.56 µg/mL | 1.56 µg/mL | 0.39 µg/mL | 25.0 µg/mL | 25.0 µg/mL | 6.25 µg/mL
3 | FC(OCC1COC(Cn2ccnc2)(c2ccc(F)cc2F)O1)=C(c1cccc(Cl)c1)C(F)(F)F (mixture of isomers) [Ex. 64] | 3.13 µg/mL | 100 µg/mL | 12.5 µg/mL | 12.5 µg/mL | 0.78 µg/mL | 50.0 µg/mL | 100 µg/mL | 25.0 µg/mL | 100 µg/mL | 1.56 µg/mL | 1.56 µg/mL | 0.20 µg/mL | 6.25 µg/mL | 6.25 µg/mL | 1.56 µg/mL
4 | FC(OCC1COC(Cn2ccnc2)(c2ccc(F)cc2F)O1)=C(c1cccc(F)c1)C(F)(F)F (mixture of isomers) [Ex. 65] | 3.13 µg/mL | 12.5 µg/mL | 12.5 µg/mL | 12.5 µg/mL | 0.78 µg/mL | 100 µg/mL | >100 µg/mL | 25.0 µg/mL | 50.0 µg/mL | 1.56 µg/mL | 1.56 µg/mL | ≦0.10 μg/ml | 6.25 µg/mL | 3.13 µg/mL | 1.53 µg/mL
5 | FC(OCC1COC(Cn2ccnc2)(c2ccc(F)cc2F)O1)=C(c1ccc(F)cc1)C(F)(F)F (mixture of isomers) [Ex. 66] | 6.25 µg/mL | >100 µg/mL | 12.5 µg/mL | 12.5 µg/mL | 0.39 µg/mL | 100 µg/mL | >100 µg/mL | 50.0 µg/mL | 100 µg/mL | 0.78 µg/mL | 0.39 µg/mL | ≦0.10 μg/ml | 6.25 µg/mL | 6.25 µg/mL | 3.13 µg/mL
6 | FC(OCC1COC(Cn2ccnc2)(c2ccc(F)cc2F)O1)=C(c1cc(Cl)cc(Cl)c1)C(F)(F)F (mixture of isomers) [Ex. 67] | 3.13 µg/mL | 100 µg/mL | 12.5 µg/mL | 12.5 µg/mL | 0.78 µg/mL | 50.0 µg/mL | 100 µg/mL | 25.0 µg/mL | 100 µg/mL | 1.56 µg/mL | 1.56 µg/mL | 0.20 µg/mL | 6.25 µg/mL | 6.25 µg/mL | 1.56 µg/mL
7 | FC(OCC1COC(Cn2ccnc2)(c2ccc(F)cc2F)O1)=C(c1cccs1)C(F)(F)F (mixture of isomers) [Ex. 68] | 1.56 µg/mL | 12.5 µg/mL | 6.25 µg/mL | 12.5 µg/mL | 0.78 µg/mL | 50.0 µg/mL | >100 µg/mL | 25.0 µg/mL | 50.0 µg/mL | 1.56 µg/mL | 0.78 µg/mL | ≦0.10 μg/ml | 3.13 µg/mL | 1.56 µg/mL | 1.56 µg/mL
8 | FC(=Cc1ccccc1)OCC1COC(Cn2cncn2)(c2ccc(Cl)cc2Cl)O1 (mixture of isomers) [Ex. 69] | 6.25 µg/mL | 6.25 µg/mL | 25.0 µg/mL | 25.0 µg/mL | 3.13 µg/mL | 12.5 µg/mL | >100 µg/mL | 6.25 µg/mL | >100 µg/mL | 3.13 µg/mL | 1.56 µg/mL | 0.39 µg/mL | 25 µg/mL | 0.78 µg/mL | 0.39 µg/mL
